In ChEMBL document CHEMBL1131608, “Structure-activity relationships and molecular modeling of 3, 5-diacyl-2,4-dialkylpyridine derivatives as selective A3 adenosine receptor antagonists” (J Med Chem, 1998):

The compounds below were run against Adenosine receptor A2a (Rattus norvegicus) (UniProt P30543) (assay: Binding affinity towards adenosine A2A receptor by measuring its ability to displace [3H]-CGS- 21680 in rat striatal membranes at a concentration of 10e-4 M). Conditions: Striatum, Membrane.
Sequence of Adenosine receptor A2a (Rattus norvegicus) (P30543 whole entry): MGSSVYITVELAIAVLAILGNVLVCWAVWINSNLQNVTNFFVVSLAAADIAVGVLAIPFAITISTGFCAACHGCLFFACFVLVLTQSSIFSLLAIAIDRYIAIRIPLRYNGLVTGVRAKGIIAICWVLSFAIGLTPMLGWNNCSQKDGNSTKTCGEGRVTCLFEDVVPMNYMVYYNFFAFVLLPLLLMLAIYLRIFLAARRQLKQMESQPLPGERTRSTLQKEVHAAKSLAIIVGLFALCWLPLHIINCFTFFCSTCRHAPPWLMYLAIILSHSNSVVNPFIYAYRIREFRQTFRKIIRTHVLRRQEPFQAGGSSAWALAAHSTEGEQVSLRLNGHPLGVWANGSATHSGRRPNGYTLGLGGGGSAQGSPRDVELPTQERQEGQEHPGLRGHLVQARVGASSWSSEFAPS
Assay type: cell membranes

inhibition [%] | Compound
3.69 | CCOC(=O)c1c(C)nc(-c2ccccc2)c(C(=O)OCC)c1CC
54.8 | CCOC(=O)C1=C(c2ccccc2)N=C(C)/C(=C(/O)SCC)C1CC (stereo not given)
2.82 | CCCc1nc(-c2ccccc2)c(C(=O)OCC)c(CC)c1C(=O)SCC
24.1 | CCCOC(=O)c1c(-c2cccc(Cl)c2)nc(CC)c(C(=O)SCCC)c1CC
6.13 | CCOC(=O)c1c(-c2ccccc2)nc(CC)c(C(=O)SCC)c1CC
8.91 | CCOC(=O)c1c(-c2cccc(Cl)c2)nc(CC)c(C(=O)SCC)c1CC
2.88 | CCOC(=O)c1c(C)nc(-c2ccccc2)c(C(=O)OCC)c1C(OC)OC
< 10 | CCCOC(=O)c1c(-c2ccccc2)nc(CC)c(C(=O)SCC)c1CC

Each compound was assayed against T1, Adenosine receptor A2a (Rattus norvegicus, UniProt P30543). Conditions: not given.
T1 sequence (P30543 whole entry): as above

Ki [nM] | Compound
> 100000 | CCO/C(O)=C1\C(C)=NC(c2ccccc2)=C(C(=O)OCc2ccc([N+](=O)[O-])cc2)C1C#Cc1ccccc1 (stereo not given)

The compounds below were run against T2, Adenosine receptor A3 (Homo sapiens) (UniProt P0DMS8) (assay: Binding affinity for adenosine A3 receptor as displacement of [125I]AB-MECA from HEK293 cell membranes at 10e-4 M). Conditions: not given.
T2 sequence (whole entry): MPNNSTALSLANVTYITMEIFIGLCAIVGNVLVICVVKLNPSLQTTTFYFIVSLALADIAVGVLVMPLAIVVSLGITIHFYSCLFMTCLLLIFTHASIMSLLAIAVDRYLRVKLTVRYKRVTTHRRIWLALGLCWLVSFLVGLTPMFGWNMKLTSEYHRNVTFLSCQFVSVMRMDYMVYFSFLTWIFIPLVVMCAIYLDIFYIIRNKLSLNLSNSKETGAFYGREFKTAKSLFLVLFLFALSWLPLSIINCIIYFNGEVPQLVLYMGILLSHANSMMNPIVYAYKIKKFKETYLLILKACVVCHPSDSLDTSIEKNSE

inhibition [%] | Compound
2.75 | CCOC(=O)c1c(C)nc(-c2ccccc2)c(C(=O)OCc2ccccc2)c1C#Cc1ccccc1

The compounds below were run against T3, Adenosine receptor A1 (Rattus norvegicus) (UniProt P25099) (assay: Binding affinity towards adenosine A1 receptor by measuring its ability to displace [3H]-R-PIA in rat brain membranes at a concentration of 10e-4 M). Conditions: not given.
T3 sequence (whole entry): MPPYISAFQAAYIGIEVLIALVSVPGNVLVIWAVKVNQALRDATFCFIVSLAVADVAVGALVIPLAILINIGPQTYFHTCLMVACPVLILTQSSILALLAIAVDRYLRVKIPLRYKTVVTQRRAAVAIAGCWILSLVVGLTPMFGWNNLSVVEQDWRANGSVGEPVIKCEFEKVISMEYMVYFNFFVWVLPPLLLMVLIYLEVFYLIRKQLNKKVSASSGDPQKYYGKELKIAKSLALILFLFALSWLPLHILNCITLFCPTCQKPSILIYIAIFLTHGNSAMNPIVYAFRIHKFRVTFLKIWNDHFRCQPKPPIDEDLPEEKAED
Assay type: cell membranes

Compound | inhibition [%]
CCOC(=O)C1=C(C)NC(C2CCC2)=C(C(=O)OCc2ccccc2)C1C#Cc1ccccc1 (stereo not given) | 36
CCOC(=O)C1=C(C)NC(C2CCCCC2)=C(C(=O)OCc2ccccc2)C1C#Cc1ccccc1 (stereo not given) | 22
CCOC(=O)c1c(C)nc(C2CCC2)c(C(=O)OCc2ccccc2)c1C#Cc1ccccc1 | < 10
CCOC(=O)C1=C(C)NC(C2CC2)=C(C(=O)OCc2ccccc2)C1C#Cc1ccccc1 (stereo not given) | 22
CCOC(=O)c1c(C)nc(-c2ccccc2)c(C(=O)OCC)c1CC | 3.36
CCCc1nc(-c2ccccc2)c(C(=O)OCC)c(CC)c1C(=O)SCC | 16.7
CCCOC(=O)c1c(-c2cccc(Cl)c2)nc(CC)c(C(=O)SCCC)c1CC | 41.4
CCOC(=O)c1c(-c2ccccc2)nc(CC)c(C(=O)SCC)c1CC | 41
CCOC(=O)c1c(-c2cccc(Cl)c2)nc(CC)c(C(=O)SCC)c1CC | 8.2
CCOC(=O)c1c(C)nc(-c2ccccc2)c(C(=O)OCC)c1C(OC)OC | 1.95
CCCOC(=O)c1c(-c2ccccc2)nc(CC)c(C(=O)SCC)c1CC | 7.77

More lines, now with the values ahead:

inhibition [%] | Compound
36 | CCOC(=O)C1=C(c2ccccc2)N=C(C)/C(=C(/O)SCCOC)C1CC (stereo not given)
48 | CCCC1C(C(=O)OCC)=C(c2ccccc2)N=C(C)/C1=C(/O)SCC (stereo not given)
20 | CCOC(=O)C1=C(c2ccccc2)N=C(CC)/C(=C(/O)OCC)C1C (stereo not given)
35.4 | CCOC(=O)C1=C(c2ccccc2)N=C(C)/C(=C(/O)SCC)C1CC (stereo not given)
45 | CCS/C(O)=C1\C(C)=NC(c2ccccc2)=C(C(=O)OCc2ccccc2)C1CC (stereo not given)

What follows are compounds tested against T1, Adenosine receptor A2a (assay: Binding affinity for adenosine A2A receptor as displacement of [3H]-CGS- 21680 from rat striatal membranes). Conditions: not given.
Assay type: cell membranes, Membrane

Ki [nM] | Compound
43000 | CCOC(=O)c1c(C)nc(-c2ccccc2)c(C(=O)OCc2ccccc2)c1C#Cc1ccccc1
21800 | CCOC(=O)C1=C(c2ccccc2)N=C(C)/C(=C(/O)OCC)C1CC (stereo not given)
28900 | CCCO/C(O)=C1\C(C)=NC(c2ccccc2)=C(C(=O)OCC)C1C (stereo not given)

Each compound was assayed against T2, Adenosine receptor A3 (Homo sapiens) (assay: Binding affinity towards adenosine A3 receptor by measuring its ability to displace [125I]AB-MECA binding to membranes prepared from HEK293 cells). Conditions: not given.
Assay type: cell membranes

Compound | Ki [nM]
CCOC(=O)c1c(C)nc(-c2ccccc2)c(C(=O)OCC)c1CC | 176
CCCc1nc(-c2ccccc2)c(C(=O)OCC)c(CC)c1C(=O)SCC | 33.3
CCCOC(=O)c1c(-c2cccc(Cl)c2)nc(CC)c(C(=O)SCCC)c1CC | 7.94
CCOC(=O)c1c(-c2ccccc2)nc(CC)c(C(=O)SCC)c1CC | 20
CCOC(=O)c1c(-c2cccc(Cl)c2)nc(CC)c(C(=O)SCC)c1CC | 13.4
CCOC(=O)c1c(C)nc(-c2ccccc2)c(C(=O)OCC)c1C(OC)OC | 783
CCCOC(=O)c1c(-c2ccccc2)nc(CC)c(C(=O)SCC)c1CC | 8.29

Second part, the compound after the results:

Ki [nM] | Compound
4580 | CCOC(=O)C1=C(c2ccccc2)N=C(C)/C(=C(/O)SCCOC)C1CC (stereo not given)
1650 | CCS/C(O)=C1\C(C)=NC(c2ccccc2)=C(C(=O)OCc2ccccc2)C1CC (stereo not given)

The compounds below were run against T4, Adenosine receptor A1 (Rattus norvegicus, UniProt P25099) (assay: Binding affinity for adenosine A1 receptor as displacement of [3H]R-PIA from rat brain membranes). Conditions: not given.
T4 sequence (P25099 whole entry): T3 sequence (whole entry)
Assay type: cell membranes, Membrane

Ki [nM] | Compound
17400 | CCCO/C(O)=C1\C(C)=NC(c2ccccc2)=C(C(=O)OCC)C1C (stereo not given)

The compounds below were run on HEK293 (assay: Selectivity for binding affinity towards A1 adenosine receptor in rat brain membrane and human A3 receptor expressed in HEK cells). Conditions: not given.
Assay type: cell-based

Compound | Ratio
CCOC(=O)C1=C(C)NC(C2CCCC2)=C(C(=O)OCc2ccccc2)C1C#Cc1ccccc1 (stereo not given) | 340
CCOC(=O)C1=C(c2ccccc2)N=C(C)/C(=C(/O)SCCOC)C1CC (stereo not given) | > 10
CCOC(=O)c1c(C)nc(C2CCCC2)c(C(=O)OCc2ccccc2)c1C#Cc1ccccc1 | 15
CCOC(=O)c1c(C)nc(-c2ccccc2)c(C(=O)OCc2ccccc2)c1C#Cc1ccccc1 | 4.2
CCOC(=O)c1c(C)nc(-c2ccccc2)c(C(=O)OCC)c1CC | 19
CCS/C(O)=C1\C(C)=NC(c2ccccc2)=C(C(=O)OCc2ccccc2)C1CC (stereo not given) | > 50
CCCc1nc(-c2ccccc2)c(C(=O)OCC)c(CC)c1C(=O)SCC | 500
CCCOC(=O)c1c(-c2cccc(Cl)c2)nc(CC)c(C(=O)SCCC)c1CC | 5200
CCOC(=O)c1c(-c2ccccc2)nc(CC)c(C(=O)SCC)c1CC | > 3000
CCOC(=O)c1c(-c2cccc(Cl)c2)nc(CC)c(C(=O)SCC)c1CC | 610
CCOC(=O)c1c(C)nc(-c2ccccc2)c(C(=O)OCC)c1C(OC)OC | 2.5
CCCOC(=O)c1c(-c2ccccc2)nc(CC)c(C(=O)SCC)c1CC | 940

These compounds were tested against T4, Adenosine receptor A1 (assay: Binding affinity for adenosine A1 receptor as displacement of [3H]R-PIA from rat brain membranes at 10e-4 M). Conditions: not given.
Assay type: cell membranes, Membrane

Ki [nM] | Compound
> 100000 | CCO/C(O)=C1\C(C)=NC(c2ccccc2)=C(C(=O)OCc2ccc([N+](=O)[O-])cc2)C1C#Cc1ccccc1 (stereo not given)
3.4 | CNC(=O)[C@H]1O[C@@H](n2cnc3c(NCc4ccc(N)c(I)c4)ncnc32)[C@H](O)[C@@H]1O

Each compound was assayed against Adenosine receptor A2a (Rattus norvegicus) (UniProt P30543) (assay: Binding affinity for adenosine A2A receptor as displacement of [3H]-CGS- 21680 from rat striatal membranes at 10e-4 M). Conditions: Membrane.
Assay type: cell membranes

Compound | inhibition [%]
CCOC(=O)C1=C(C)NC(C2CCC2)=C(C(=O)OCc2ccccc2)C1C#Cc1ccccc1 (stereo not given) | 10
CCOC(=O)C1=C(C)NC(C2CCCCC2)=C(C(=O)OCc2ccccc2)C1C#Cc1ccccc1 (stereo not given) | 20
CCOC(=O)C1=C(C)NC(C2CC2)=C(C(=O)OCc2ccccc2)C1C#Cc1ccccc1 (stereo not given) | 10

Other lines, results leading:

inhibition [%] | Compound
12.5 | CCOC(=O)C1=C(c2ccccc2)N=C(C)/C(=C(/O)SCCOC)C1CC (stereo not given)
29 | CCCC1C(C(=O)OCC)=C(c2ccccc2)N=C(C)/C1=C(/O)SCC (stereo not given)
< 10 | CCOC(=O)C1=C(c2ccccc2)N=C(CC)/C(=C(/O)OCC)C1C (stereo not given)
14.3 | CCS/C(O)=C1\C(C)=NC(c2ccccc2)=C(C(=O)OCc2ccccc2)C1CC (stereo not given)
